Patent publication US20200123127A1, “REMOVAL OF SENESCENCE-ASSOCIATED MACROPHAGES” (EVERON BIOSCIENCES, INC., priority 2016, published 2020)
Like-named read-outs stand apart in the source and are kept apart here.

What was measured:
[1] = tested on: human neonatal dermal fibroblasts (NDF); experiment: Resazurin viability assay, senescent vs proliferating/quiescent human neonatal dermal fibroblasts; assay type: cell-based; settings: Homo sapiens, Fibroblast, 72 h, 72 hour exposure, resazurin
Description: FIG. 2. Compound A1.1 selectively kills senescent human neonatal dermal fibroblasts (NDF) cells in a dose- and time-dependent manner. (FIG. 2A) Normal proliferating and quiescent NDF cells, and the cells made senescent via exposure to genotoxic agents (doxorubicin, bleomycin and gamma-irradiation) were incubated with increasing concentrations of A1.1. At 72 hours post-treatment cell viability was measured via resazurin viability assay. (FIG. 2B) Compound A1.1 selectively kills senescent NDF cells in time-dependent manner discriminating between acute genotoxic stress and senescence. Acutely damaged NDF cells were irradiated with 4 Gy gamma-irradiation 24 hours before A1.1 treatment. Senescent NDF cells were treated with bleomycin or irradiated with 15 Gy and incubated for 14 days to induce senescence before treatment with A1.1. Proliferating acutely damaged and senescent NDF cell were treated with 1.875-30 μM A1.1 and viable cells were measured at 72 hours after treatment. Average and standard deviation are shown.
Normal proliferating and quiescent NDF cells, and the cells made senescent via exposure to genotoxic agents (doxorubicin, bleomycin and gamma-irradiation) were incubated with increasing concentrations of A1.1. At 72 hours post-treatment cell viability was measured via resazurin viability assay.
A1.1 selectively kills senescent human neonatal dermal fibroblasts (NDF) cells in time-dependent manner discriminating between acute genotoxic stress and senescence ([…]). Acutely damaged NDF cells were irradiated with 4 Gy gamma-irradiation 24 hours before A1.1 treatment. Senescent NDF cells were treated with bleomycin or irradiated with 15 Gy and incubated for 14 days to induce senescence before treatment with A1.1.
(§1) Cytotoxicity of A1.1 analogs against bleomycin-induced senescent human NDFs and rat dermal fibroblasts (RDFs). Activity of analogs was assessed from dose-response curves against irradiation- or bleomycin-induced senescent and proliferating cells to calculate IC50s (uM). The fold difference of proliferating versus senescent cell IC50s was used to assess the level of specific anti-senescent activity of the compounds.
(§2) For generation senescent human neonatal dermal fibroblasts (NDFs) and adult rat dermal fibroblasts (RDFs), cells are treated at ˜10 ug/ml bleomycin for 3 days (for bleomycin-induced senescence) or irradiated once at 20 Gy using a gamma irradiator (Cs source), followed by at least 7 day recovery in fresh medium for induction of senescence. Senescent and non-senescent (proliferating) cells for each cell line are plated into 384-w plate, followed by 72 hour exposure to a dose titration of compounds. Viability measurements are estimated using the resazurin viability assay. Using GraphPad Prism 5, the IC50 values are calculated from the non-linear regression of log-transformed compound concentrations versus dose-response normalized to background and non-treated controls.

[2] = tested on: adult rat dermal fibroblasts (RDF); experiment: Resazurin viability assay, senescent vs proliferating rat dermal fibroblasts; assay type: cell-based; settings: Rattus norvegicus, Fibroblast, 72 hour exposure, resazurin
Description: as §1, §2

[3] = tested on: p16(Ink4a) expression in SAMs; experiment: p16(Ink4a) promoter-dependent luciferase activity in alginate bead-elicited macrophages (SAMs) ex vivo; assay type: cell-based, mouse; settings: SAMs from NDF alginate beads; dose-response testing
Description: FIG. 7. Immunomodulatory regulation of p16(Ink4a) and SAβG in macrophages. Peritoneal lavage cells elicited by alginate-encapsulated SCs from p16^Ink4a/Luc mice were treated ex vivo with immunomodulatory agents for 72 hours. A) p16 promoter-dependent luciferase activity (black bars) and […] activity (via 4-MUG hydrolysis) (gray bars) were measured following treatment with M1- and M2-polarizing stimuli: LPS at 1 ng/mL, IFN-γ at 10 ng/mL, LPS/IFN-γ co-treatment, Poly(I:C) at 10 μg/mL, IFN-α at 100 U/mL, IL-4 at 20 ng/mL, IL-13 at 10 ng/ml, and IL-4/IL-13 co-treatment. Results are shown as the mean±standard deviation for at least 3 independent experiments, with statistical significance between treated compared to non-treated samples depicted. B) Dose-dependent response of JAK1/2 inhibitor Ruxolitinib on luciferase activity in elicited macrophages in the presence (gray bars) or absence (black bars) of IL-4 (10 ng/mL) stimulation. Enzyme activities are expressed as the percent activity relative to non-treated (NT) controls per cell. Statistical significance between IL-4 stimulated and non-stimulated cells at each concentration of ruxolitinib is shown.
FIG. 8. Immunomodulatory regulation of p16(Ink4a) and SAβG in macrophages. Peritoneal lavage cells elicited by alginate-encapsulated SCs from p16^Ink4a/Luc mice were treated ex vivo with immunomodulatory agents for up to 72 hours. (A) mRNA expression of p16(Ink4a) and β-galactosidase (Glb1) in macrophages (relative to B2m expression) with or without LPS stimulation for 72 hours analyzed via qRT-PCR, normalized to non-treated controls. (B) Microphotograph of SAβG-stained adherence-selected macrophages with or without stimulation with LPS (1 ng/mL) for 72 hours (10× objective). (C&D) Kinetics of p16(Ink4a) promoter-dependent luciferase activity per cell with or without LPS stimulation (C) or IL-4 stimulation (D), normalized to activity from non-treated cells at time zero. Results are shown as the mean±standard deviation for at least 3 experiments. Statistical significance with respect to non-treated control at time zero is indicated. (E) Luciferase activity and (3-galactosidase activity (via 4-MUG hydrolysis) from proteose peptone-elicited lavage cells following stimulation with IL-4 (20 ng/mL) for 72 hours, normalized to non-treated controls. (F) Viability following 72 hour dose-response to JAK1/2 inhibitor Ruxolitinib in the presence or absence of IL-4 (10 ng/mL) stimulation, measured by CyQuant Direct DNA-based viability assay. Viability normalized to respective controls lacking Ruxolitinib. (G&H) Dose-response of STAT6 inhibitor AS1517499 against luciferase activity (G) and viability via CyQuant Direct assay (H) following 72 hour treatment in the presence and absence of IL-4 (10 ng/mL). Results normalized to respective controls (with or without IL-4) lacking STAT6 inhibitor. Statistical significance is calculated with respect to the difference between IL-4 stimulated and non-stimulated cells at each concentration of STAT6 inhibitor. (I) Relative luciferase activity per cell following repolarization with M1- and M2-inducing agents. Macrophages were left non-treated (NT) or treated with either LPS (1 ng/ml) or IL-4 (20 ng/ml) for 72 hours (days 1-3), as indicated. For each treatment set, samples were collected at 72 hours (no further treatment; days 4-6=x). Alternatively, cells were washed and placed in fresh medium (−), medium containing LPS (1 ng/mL) and IFN-γ (10 ng/mL), or medium containing IL-4 (20 ng/mL) and IL-13 (10 ng/mL) and incubated for an additional 72 hours prior to sample collection (as indicated for days 4-6). Luciferase activity is expressed as the percent activity per cell relative to non-treated (NT) controls after the first 72 hours.
Luciferase activity of cell lysates was accessed using Bright-Glo™ Luciferase Assay System (Promega; Madison, Wis.) according to manufacturer's instructions with minor modifications. […]

[4] = proliferating NDF, read-out: IC50 NDFprolif
[5] = senescent NDF, bleomycin-induced, read-out: IC50 NDFsen.bleo
[6] = light or radiation study, senescent NDF, irradiation-induced, read-out: IC50 NDFsen.irr
[7] = light or radiation study, senescent RDF, irradiation-induced, read-out: IC50 RDFsen.irr
[8] = proliferating RDF, read-out: IC50 RDFprolif
[9] = senescent RDF, bleomycin-induced, read-out: IC50 RDFsen.bleo

Compound: COc1ccc(C2CC(=NO)c3c(SCc4ccccc4)sc(C(=O)OCc4ccccc4)c3C2)cc1 (stereo not shown) [Example A1.8, Benzyl 3-(benzylthio)-4-(hydroxyimino)-6-(4-methoxyphenyl)-4,5,6,7-tetrahydrobenzo[c]-thiophene-1-carboxylate]
- IC50 [1, 4]: > 20 µM
- IC50 [1, 5]: < 10 µM

Compound: COc1ccc(C2C/C(=N\O)c3sc(NC(=O)COc4ccc(C)cc4)nc3C2)cc1 (stereo not shown) [Example A4.1]
- IC50 [1, 4]: > 5 µM
- IC50 [1, 5]: < 5 µM
- IC50 [1, 6]: < 2.5 µM
- IC50 [2, 7]: < 5 µM
- IC50 [2, 8]: < 10 µM
- IC50 [2, 9]: < 5 µM

Compound: CC1(C)CC(=NO)c2c(SCc3ccccc3)sc(C(=O)NCc3ccccc3)c2C1 [Example A1.4, N-benzyl-3-(benzylthio)-4-(hydroxyimino)-6,6-dimethyl-4,5,6,7-tetrahydrobenzo[c]thiophene-1-carboxamide]
- IC50 [1, 4]: > 20 µM
- IC50 [1, 5]: < 10 µM

Compound: N#Cc1cc2c(nc1SCc1ccccc1)CC(c1ccccc1)C/C2=N\O (stereo not shown) [Example A3.2, 2-(Benzylthio)-5-(hydroxyimino)-7-phenyl-5,6,7,8-tetrahydroquinoline-3-carbonitrile]
- IC50 [1, 4]: > 20 µM
- IC50 [1, 5]: < 15 µM
- IC50 [1, 6]: < 10 µM
- IC50 [2, 7]: < 2.5 µM
- IC50 [2, 8]: > 20 µM
- IC50 [2, 9]: < 5 µM

Compound: CCOC(=O)c1sc(SCc2ccccc2)c2c1CC(c1ccc(F)cc1)CC2=NO (stereo not shown) [Example A1.7, Ethyl 3-(benzylthio)-6-(4-fluorophenyl)-4-(hydroxyimino)-4,5,6,7-tetrahydrobenzo[c]-thiophene-1-carboxylate]
- IC50 [1, 4]: > 10 µM
- IC50 [1, 5]: < 2.5 µM
- IC50 [1, 6]: < 2.5 µM
- IC50 [2, 7]: < 2.5 µM
- IC50 [2, 8]: > 5 µM
- IC50 [2, 9]: < 2.5 µM

Compound: CN(C)C(=N)N=C(N)N [Metformin]
- Modulation of p16(Ink4a): SAMs [3]: decrease

Compound: Nc1nc(CCCc2ccccc2)c2c(n1)CC(c1ccccc1)C/C2=N\O (stereo not shown) [Example A2.3, 2-Amino-7-phenyl-4-(3-phenylpropyl)-7,8-dihydroquinazolin-5(6H)-one oxime]
- IC50 [1, 4]: > 20 µM
- IC50 [1, 5]: < 20 µM
- IC50 [1, 6]: < 20 µM
- IC50 [2, 8]: > 20 µM
- IC50 [2, 9]: < 15 µM

Compound: O/N=C1\CC(c2ccccc2)Cc2nc(NCCOc3ccccc3)ncc21 (stereo not shown) [Example A2.2, 2-((2-Phenoxyethyl)amino)-7-phenyl-7,8-dihydroquinazolin-5(6H)-one oxime]
- IC50 [1, 4]: > 20 µM
- IC50 [1, 5]: < 2.5 µM
- IC50 [1, 6]: < 5 µM
- IC50 [2, 7]: < 2.5 µM
- IC50 [2, 8]: > 20 µM
- IC50 [2, 9]: < 2.5 µM

Compound: COc1ccc(C2C/C(=N\O)c3c(SCc4ccccc4)sc(C(=O)NCc4ccccc4)c3C2)cc1 (stereo not shown) [Example A1.14, N-benzyl-3-(benzylthio)-4-(hydroxyimino)-6-(4-methoxyphenyl)-4,5,6,7-tetrahydrobenzo[c]thiophene-1-carboxamide]
- IC50 [1, 4]: > 20 µM
- IC50 [1, 5]: < 5 µM
- IC50 [1, 6]: < 5 µM
- IC50 [2, 7]: < 2.5 µM
- IC50 [2, 8]: > 20 µM
- IC50 [2, 9]: < 2.5 µM

Compound: CCOC(=O)c1sc(SCc2ccccc2)c2c1C(c1ccc(OC)cc1)CC/C2=N\O (stereo not shown) [Example A1.9, Ethyl 3-(benzylthio)-4-(hydroxyimino)-7-(4-methoxyphenyl)-4,5,6,7-tetrahydrobenzo[c]-thiophene-1-carboxylate]
- IC50 [1, 4]: > 20 µM
- IC50 [1, 5]: < 20 µM
- IC50 [1, 6]: < 20 µM
- IC50 [2, 7]: < 20 µM
- IC50 [2, 8]: > 20 µM
- IC50 [2, 9]: > 20 µM

Compound: O/N=C1\CC(c2ccccc2)Cc2nc(NCc3ccccc3)sc21 (stereo not shown) [Example A4.2, 2-(Benzylamino)-5-phenyl-5,6-dihydrobenzo[d]thiazol-7(4H)-one oxime]
- IC50 [1, 4]: > 20 µM
- IC50 [1, 5]: < 15 µM
- IC50 [1, 6]: < 15 µM
- IC50 [2, 7]: < 10 µM
- IC50 [2, 8]: > 20 µM
- IC50 [2, 9]: < 10 µM

Compound: O=C(Nc1ccccc1)c1cc2c(nc1NCCOc1ccccc1)CC(c1ccccc1)C/C2=N\O (stereo not shown) [Example A3.1, 5-(Hydroxyimino)-2-((2-phenoxyethyl)amino)-N,7-diphenyl-5,6,7,8-tetrahydroquinoline-3-carboxamide]
- IC50 [1, 4]: < 5 µM
- IC50 [1, 5]: < 2.5 µM
- IC50 [1, 6]: < 2.5 µM
- IC50 [2, 7]: < 2.5 µM
- IC50 [2, 8]: > 20 µM
- IC50 [2, 9]: < 2.5 µM

Compound: Cc1ccc(CNc2ncc3c(n2)CC(c2ccccc2)C/C3=N\O)cc1 (stereo not shown) [Example A2.1, 2-((4-Methylbenzyl)amino)-7-phenyl-7,8-dihydroquinazolin-5(6H)-one oxime]
- IC50 [1, 4]: > 20 µM
- IC50 [1, 5]: < 5 µM
- IC50 [1, 6]: < 5 µM
- IC50 [2, 7]: < 5 µM
- IC50 [2, 8]: > 20 µM
- IC50 [2, 9]: < 5 µM

Compound: CCOC(=O)c1sc(Sc2ccccc2)c2c1CC(c1ccc(OC)cc1)C/C2=N\O (stereo not shown) [Example A1.5, Ethyl 4-(hydroxyimino)-6-(4-methoxyphenyl)-3-(phenylthio)-4,5,6,7-tetrahydro-benzo[c]thiophene-1-carboxylate]
- IC50 [1, 4]: > 10 µM
- IC50 [1, 5]: < 10 µM
- IC50 [1, 6]: < 10 µM
- IC50 [2, 7]: < 5 µM
- IC50 [2, 8]: > 10 µM
- IC50 [2, 9]: < 5 µM

Compound: COc1ccc(C2C/C(=N\O)c3c(SCc4ccccc4)sc(C(=O)NCc4ccco4)c3C2)cc1 (stereo not shown) [Example A1.15, 3-(Benzylthio)-N-(furan-2-ylmethyl)-4-(hydroxyimino)-6-(4-methoxyphenyl)-4,5,6,7-tetrahydrobenzo[c]thiophene-1-carboxamide]
- IC50 [1, 4]: > 20 µM
- IC50 [1, 5]: < 5 µM
- IC50 [1, 6]: < 5 µM
- IC50 [2, 7]: < 5 µM
- IC50 [2, 8]: > 20 µM
- IC50 [2, 9]: < 2.6 µM
